Assay results reported in PMC12591170, “Glabridin‐Gold(I) Complex as a Novel Immunomodulatory Agent Targeting TrxR and MAPK Pathways for Synergistic Enhancement of Antitumor Immunity” (Advanced Science, 2025).

Columns and labels:
[1] = tested on: MAPK pathway (phosphorylated MEK1/2 and ERK1/2); test: Western blot of MAPK pathway in HepG2; format: cell-based, human; settings: HepG2, 24 h
Experimental: (§1) HepG2 cells were incubated in 6 cm culture dishes and treated with different complexes. The treated cells were lysed with lysis buffer (RIPA:PMSF:phosphatase inhibitor:protease inhibitor = 100:1:1:1). The lysed cells were further broken by sonication, and proteins were isolated by centrifugation. The protein concentrations were detected by BCA assay. 10% SDS PAGE gel was usually applied to separate the different kDa of proteins, and more than 200 kDa of proteins were separated using 8% SDS PAGE gel. After seperation, proteins were transferred onto polyvinylidene difluoride (PVDF) membranes. The target proteins were labeled by various specific primary antibodies at 4 °C overnight. Then, the membranes were treated with anti‐rabbit or anti‐mouse secondary antibody for 2 h. Tris buffered saline with tween 20 (TBST) was applied to wash the membranes after each operation above. The target proteins’ bands were detected by the enhanced chemiluminescence (ECL) procedure.

[2] = Stability analysis by 1H NMR; format: physicochemical
Experimental: 5 mM of complex 6d was incubated with DMSO‐d6 or the mixed solution (DMSO‐d6 /D2O = 9:1) or the same mixed solution with 5 mM of GSH for different times (0 – 72 h), and the ^1H NMR spectra were acquired. The stability of AF was determined by the same method.

[3] = tested on: HepG2 cells; test: ROS levels assay (DHE, DCFH-DA); format: cell-based, human; settings: HepG2, 6 h, DHE and DCFH-DA probes
Experimental: HepG2 cells were seeded in 12‐well plate (5 × 10^4 cells per well). 4 mM N‐acetylcysteine (NAC) was applied for 1 h pretreatment. DMF (0.1%), AF (4 µM) or different concentrations of 6d (2, 4, 8 µM) were added in the wells for 6 h incubation. 10 µM DHE or DCFH‐DA (dissolved in DMEM) probes were applied for 30 min staining. The cells were photographed by the fluorescence microscopy after washing twice.

[4] = tested on: Hepa1-6 tumors; test: In vivo antitumor assay, Hepa1-6 tumors; set-up: species or system C57BL/6 mice
[5] = tested on: MEK1/2; test: CETSA and ITDR assay, MEK1/2; format: binding, human; settings: HepG2 proteins, 8 µM, ITDR at 78 °C
Experimental: The treated HepG2 cells in 10 cm culture dishes were collected and washed with PBS. The collected cells were repeatedly frozen and thawed for 3 times by liquid nitrogen and 37 °C water bath. Then, proteins were isolated by centrifugation. The isolated proteins were divided into different tubes and incubated with same concentration of 6d at different temperature. Western blot was applied for CETSA by analyzing the band intensity of different temperature groups.
The temperature, which results in significant band differences between 6d and control group, was selected for ITDR assay. The isolated proteins were divided into different tubes and incubated with different concentration of 6d at same temperature. The binding between 6d and target protein was assessed by analyzing the band intensity of different concentration groups.

[6] = tested on: PD-L1; test: In vivo PD-L1 expression in tumor tissue; set-up: species or system C57BL/6 mice; settings: western blot, 13 days of treatment
[7] = In vivo tolerability (body weight, survival, organ H&E)
Experimental: All mice were 6–8 weeks old males and procured from Hangzhou Medical College, located in Hangzhou, China. […] 2 × 10^6 Hepa1‐6 cells in 100 µL DMEM were subcutaneously seeded in underarms of C57BL/6 mice. […] Meanwhile, the mice weights and tumor volume were recorded, and the calculation formula of tumor volume was Volume = Width^2 × Length/2. After 13 days, all mice were sacrificed for collection of tumors, hearts, livers, spleens, lungs and kidneys. Collagenase IV (1 mg mL^−1) and DNase I (1 µg mL^−1) were applied to digest a part of the tumor tissue into cell suspension, and lysis buffer was used to remove red blood cells. The prepared cells above were stained with antibodies (anti‐CD3e‐FITC, and anti‐CD8a‐PE; anti‐CD11c‐APC, anti‐CD80‐PE, and anti‐CD86‐FITC; anti‐CD45‐Percp, anti‐CD11b‐APC, and anti‐Ly‐6G/Ly‐6C(Gr‐1)‐FITC; anti‐CD11b‐APC, anti‐CD206‐PE, and CD86‐FITC). CD3^+CD8^+ T cells, CD80^+CD86^+ DCs, CD11b^+Gr‐1^+ MDSCs, CD206^−CD86^+ M1‐type macrophages and CD206^+CD86^− M2‐type macrophages were analyzed by flow cytometry. Then, another part of tumor tissues were fixed with 4% paraformaldehyde, embedded in paraffin, cut into slices and stained with antibodies for immunofluorescence and immunohistochemistry analysis. H&E stain assays were applied for all tissue samples.

[8] = biological target: T1, TrxR (Homo sapiens, UniProt Q16881); test: Intracellular TrxR activity (kit, probe) and TrxR expression in HepG2; format: cell-based
T1 construct: endogenous in cells; host or cells: HepG2
T1 sequence (Q16881 151-649 limits assumed): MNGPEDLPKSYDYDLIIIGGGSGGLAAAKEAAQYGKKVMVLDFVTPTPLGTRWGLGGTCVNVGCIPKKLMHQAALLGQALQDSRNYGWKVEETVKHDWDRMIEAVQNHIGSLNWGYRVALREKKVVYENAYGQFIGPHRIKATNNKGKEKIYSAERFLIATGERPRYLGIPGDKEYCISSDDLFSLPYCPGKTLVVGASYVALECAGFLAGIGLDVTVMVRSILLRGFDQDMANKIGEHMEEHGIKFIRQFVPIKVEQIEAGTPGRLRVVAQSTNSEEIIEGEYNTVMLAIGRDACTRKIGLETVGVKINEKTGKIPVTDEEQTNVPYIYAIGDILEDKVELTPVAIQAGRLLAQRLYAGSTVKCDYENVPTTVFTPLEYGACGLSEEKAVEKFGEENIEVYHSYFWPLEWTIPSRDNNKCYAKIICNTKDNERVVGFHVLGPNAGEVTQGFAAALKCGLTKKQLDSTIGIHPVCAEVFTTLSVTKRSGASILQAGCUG
Experimental: 1 × 10^6 HepG2 cells were cultured in 6 cm culture dishes, and treated with DMF (0.1%), AF (4 µM) or different concentrations of 6d (2, 4, 8 µM) after cell adhesion. 24 h later, the intracellular TrxR activity was analyzed by the TrxR activity detection kit.
In addition, intracellular TrxR activity was detected by TrxR probe. 5 × 10^4 HepG2 cells were seeded in 12‐well plate. After 24 h, the complete medium was removed, and the each well was washed twice by phosphate buffer saline (PBS). 10 µM TrxR probe (dissolved in PBS) was added for 1 h incubation. Then, the probe was removed, and washing twice was performed by PBS. The fluorescence microscopy was applied to capture the cell images under the channel of FITC.
as §1, with “The target proteins were labeled by various specific primary antibodies at 4 °C overnight. Then, the membranes were treated with anti‐rabbit or anti‐mouse secondary antibody for 2 h. Tris buffered saline with tween 20 (TBST) was applied to wash the membranes after each operation above.” left out

Q: With `CCn1ccn(CCCCCOc2ccc([C@@H]3COc4c(ccc5c4C=CC(C)(C)O5)C3)c(OCCCCCn3ccn(CC)[c]3=[Au][Br])c2)[c]1=[Au][Br]` [6d] as the molecule, how does the “ERK1/2 phosphorylation (western blot, Figure S49)” value [1] read?
A: downregulated ERK1/2 phosphorylation

Q: And the “phosphorylation of MEK1/2 and ERK1/2 (western blot)” value [1]?
A: significantly inhibited

Q: And the “time after which 1H NMR spectra began to change / showed new peaks” value ([2]; 5 mM complex, DMSO-d6/D2O 9:1 containing GSH (5 mM))?
A: 12 h

Q: And the “stability by 1H NMR” value ([2]; DMSO-d6, over 72 h)?
A: remained stable

Q: And the “stability by 1H NMR” value ([2]; DMSO-d6/D2O (v1/v2 = 9:1), over 72 h)?
A: remained stable

Q: What about the ROS level [3] of the same molecule?
A: elevated ROS level

Q: And the “tumor volume growth vs model group” value ([4]; after 11 days of treatment, 5 mg kg^−1 i.p. every two days)?
A: significant reduction in tumor volume growth

Q: And the “tumor growth vs model group” value ([4]; after 13 days, 6d and OXA 5 mg kg^−1, GLA 10 mg kg^−1, i.p. every two days)?
A: significant tumor growth inhibition

Q: And the “binding to MEK1/2 (CETSA, ITDR)” value [5]?
A: significant binding

Q: And the “PD-L1 expression in tumor tissue” value [6]?
A: inhibited

Q: And the “effect on mice body weight” value ([7]; 6d and OXA 5 mg kg^−1, GLA 10 mg kg^−1, i.p. every two days, OXA after nine days)?
A: no significant effect

Q: What about the “organ tissue damage (H&E staining)” value ([7]; heart, liver, spleen, lung, kidney, day 13) of the same molecule?
A: did not cause noticeable damage to organ tissues

Q: What about the “TrxR expression level (western blot)” value ([8]; HepG2, 24 h) of the same molecule?
A: did not downregulate TrxR expression levels

Q: What about the “intracellular TrxR activity” value ([8]; HepG2, 24 h, 2, 4, 8 µM, TrxR probe and activity assay kit) of the same molecule?
A: suppressed TrxR activity
